Source: patent publication US20250230151A1, “COMPOUNDS FOR CANCERS DRIVEN BY BRAF MUTATION” (THE BOARD OF TRUSTEES OF THE UNIVERSITY OF ILLINOIS, priority 2021, published 2025)
Where two headings read alike, the source gives them in different places.

Assays:
A375 cells = experiment: 72-hour cell viability assay (Alamar Blue), A375; type: cell-based, human; conditions: Homo sapiens; for IC50: 72-hour incubation, Alamar Blue, V600E BRAF
Procedure: (§1) Cell Culture and reagents. All cell lines were grown in a 37° C., 5% CO2, humidified environment, in media containing 1% penicillin/streptomycin. Cell culture conditions are as follows: MDCK cells transfected with MDR1 (or ABCB1) were obtained from the Netherlands Cancer Institute (Amsterdam, The Netherlands) and maintained in DMEM with 10% fetal bovine serum (FBS, Gemini). Traditional cell lines A375, CHL-1, B16F10, and U118MG were grown in DMEM with 10% FBS, SK-MEL-28, U87 and T98G in EMEM with 10% FBS, AM-38 in EMEM with 20% HI-FBS (Gibco), HT29 in McCoy's 5A with 10% FBS, HCT116 in RPMI with 10% FBS. Compounds were dissolved in DMSO (1% final concentration, Sigma-Aldrich) for cell culture studies.
(§2) Cell viability assays. Cells were harvested, seeded in a 96-well plate and allowed to adhere overnight. Compound was added to each well in DMSO (1% final concentration). Cells were incubated for 72 hours before viability was assessed by the Alamar Blue Assay. Raptinal ([…]) was used as a dead control.

P-gp = target: T1, P-gp (Homo sapiens, UniProt P08183); experiment: MDR1-MDCK P-gp transwell bidirectional transport assay; type: in vitro ADME; conditions: 10 μM, 90 min; for Papp A→B at 90 min, 10 µM / Papp B→A at 90 min, 10 µM / efflux ratio at 90 min, 10 µM: dog, MDCK-MDR1, MDR1-MDCK; for efflux ratio at 90 min, 10 µM: read-out: ER (efflux ratio) (converted)
T1 construct: host or cells: MDCK (MDR1-MDCK)
Procedure: A novel compound collection composed of complex and diverse compounds derived from natural products, termed “Complexity-to-Diversity Collection” was employed. […] The CtD compounds were evaluated by the efflux pump and their permeability using the P-gp transwell assay using adapted and optimized known protocols. Compound transport across epithelial cells overexpressing P-gp from basolateral-to-apical and apical-to-basolateral directions were quantified to calculate permeability and efflux ratio.
P-gp transwell bidirectional transport assays. Unless noted otherwise, the transport assay was performed in triplicate in batches of 16 or 24 test compounds, with each batch containing quinidine as a substrate control and propranolol as a non-substrate control. MDR1-MDCK cells were plated at a density of 300,000 cells/cm^2 onto 96-well Falcon™ Multiwell Insert System with 1 µm pore polycarbonate filters with angled-bottom receiver plates (Coming) and were fed with the cell growth medium on day 2.
The donor solution was prepared by adding 1 mM DMSO stocks of compounds to make the final concentration […], and the receiver solution was prepared with equivalent volume of DMSO to make 1% DMSO in final assay chamber volumes.
After 80-96 hours since seeding, the growth media on both sides was aspirated. To the transwell plate (apical side), 50 μL of receiver and donor solutions prepared on a 96-well plate were added, and it was placed on top of a separate angled-bottom 96-well plate (basolateral side) containing 260 μL of receiver and donor solutions.
Following 90 minutes of incubation at 37° C. with shaking at 90 rpm, 20 μL aliquot of samples were taken from both the donor and receiver chambers, and the apical and basolateral sides. Aliquots of 4 test compounds were pooled for each category: apical-donor, apical-receiver, basolateral-donor, basolateral-receiver. To measure CO and mass balance, initial donor samples from both apical and basolateral side were set aside from the assay plate. Acetonitrile twice the volume of pooled samples was added and mixed thoroughly, and precipitated proteins were removed by centrifugation at 20,000 r.c.f for 10 minutes.
To ascertain the MDCK monolayer integrity, the solution on apical side contained 100 µM Lucifer Yellow (Millipore-Sigma). After 90 minutes of compound transport, Lucifer Yellow concentration in the basal well was measured using SpectraMax M3 (Molecular Devices) set to an excitation wavelength of 430 nm and an emission wavelength of 540 nm.
Samples were analyzed with the 5500 QTRAP LC/MS/MS system (AB Sciex) with a 1200 series HPLC system (Agilent Technologies) including a degasser, an autosampler, and a binary pump. The liquid chromatography separation was performed on an Agilent SB-Aq column (4.6×50 mm, 5 μm) (Agilent Technologies) with mobile phase A (0.1% formic acid in water) and mobile phase B (0.1% formic acid in acetonitrile). The flow rate was 0.3 ml min^−1. The linear gradient was optimized for each compound. The autosampler was set at 5° C. The injection volume was 15 μL. Mass spectra were acquired with both positive electrospray ionization at the ion spray voltage of 5,500 V and negative electrospray ionization at the ion spray voltage of −4,500 V. The source temperature was 450° C. The curtain gas, ion source gas 1, and ion source gas 2 were 33, 50 and 65, respectively. Multiple reaction monitoring was used to quantify metabolites.
Efflux data calculations.

HCT116 cells = experiment: 72-hour cell viability assay (Alamar Blue), HCT116; type: cell-based; conditions: Homo sapiens, HCT-116, WT BRAF
Procedure: as §1, §2

SK-MEL-28 cells = experiment: 72-hour cell viability assay (Alamar Blue), SK-MEL-28; type: cell-based; conditions: Homo sapiens, SK-MEL-28, V600E BRAF, melanoma
Procedure: as §1, §2

[1] = Blood-brain barrier penetrance, brain and serum levels after single IV injection; type: in vivo; conditions: CD-1, mouse, 60 min after single 25 mg/kg IV injection, read-out: brain-to-serum ratio
Procedure: Blood-brain barrier penetrance P-gp in vivo assays. All experimental procedures were reviewed and approved by the University of Illinois Institutional Animal Care and Use Committee (Protocol number: 19191). CD-1 mice were purchased from Charles River and acclimated for 4-7 days before use. Mice were administered elacridar or its vehicle at 2.5 mg/kg via lateral tail vein injection. Thirty-minutes post injection, mice were then treated with compounds at 25 mg/kg intravenously now in the other tail vein. At each time point, mice were sacrificed and blood was collected by lacerating the right auricle with iris scissors. An 18-gauge angiocatheter was inserted through the left ventricle, and all residual circulatory volume was removed by perfusing 0.9% saline solution via an analog peristaltic pump. Brains were harvested from the cranial vault and flash frozen. Blood samples were centrifuged at 13,000 ref for 10 minutes and the supernatant serum was stored at −80° C. until analysis. Brain samples were homogenized in ice-cold methanol and centrifuged first at 2000 ref for three minutes and then 13,000 ref for ten minutes and supernatant and tissue debris were separated and stored at −80° C. The resultant supernatant and serum were analyzed by LC-MS/MS to determine compound concentrations. […] All compounds were administered at 5 mL/kg.

[2] = system: MAPK signaling (phospho-MEK1/2, phospho-ERK1/2) in A375 cells; experiment: Immunoblotting of MEK1/2 and ERK1/2 phosphorylation, A375; type: cell-based, human; conditions: A375, highest concentrations (10 μM), 24 h
Procedure: Immunoblotting. Cells were lysed using RIPA buffer containing phosphatase (BioVision) and protease inhibitor cocktail (Calbiochem). Protein concentration was determined using the BCA assay (Pierce). Cell lysates containing […] of protein were loaded into each lane of 4% to 20% gradient gels (Bio-Rad) for SDS-PAGE. Proteins were transferred onto PDVF membrane for Western blot analysis. Blots were blocked with BSA for one hour followed by incubation with primary antibody overnight (dilution according to manufacturer's protocols), and then secondary antibody was incubated for one hour. Blots were then imaged with a ChemiDoc Touch (Bio-Rad) after incubation with SuperSignal West Pico Solution (ThermoFischer) following manufacturer's protocols. All antibodies were purchased from Cell Signaling Technology: p-ERK (9101S), ERK (4695S), p-MEK (9121S), MEK (8727S), vinculin (13901S) Rabbit IgG-HRP (7074), […] (5125).

B16F10 cells = experiment: 72-hour cell viability assay (Alamar Blue), B16F10; type: cell-based; conditions: Mus musculus, B16-F10, WT BRAF, read-out: B16F10 IC50
Procedure: as §1, §2

AM-38 cells = experiment: 72-hour cell viability assay (Alamar Blue), AM-38; type: cell-based; conditions: Homo sapiens, AM-38, V600E BRAF, glioma
Procedure: as §1, §2

CHL-1 cells = experiment: 72-hour cell viability assay (Alamar Blue), CHL-1; type: cell-based; conditions: Homo sapiens, CHL-1, WT BRAF
Procedure: as §1, §2

T98G cells = experiment: 72-hour cell viability assay (Alamar Blue), T98G; type: cell-based; conditions: Homo sapiens, T98G, WT BRAF, read-out: T98G IC50
Procedure: as §1, §2

U118MG cells = experiment: 72-hour cell viability assay (Alamar Blue), U118MG; type: cell-based; conditions: Homo sapiens, U-118-MG, WT BRAF
Procedure: as §1, §2

U87 cells = experiment: 72-hour cell viability assay (Alamar Blue), U87; type: cell-based; conditions: Homo sapiens, WT BRAF
Procedure: as §1, §2

HT29 cells = experiment: 72-hour cell viability assay (Alamar Blue), HT29; type: cell-based; conditions: Homo sapiens, HT-29, V600E BRAF, colon
Procedure: as §1, §2

[3] = colon, read-out: HCT116 (WT) IC50

T1 sequence (P08183 whole entry): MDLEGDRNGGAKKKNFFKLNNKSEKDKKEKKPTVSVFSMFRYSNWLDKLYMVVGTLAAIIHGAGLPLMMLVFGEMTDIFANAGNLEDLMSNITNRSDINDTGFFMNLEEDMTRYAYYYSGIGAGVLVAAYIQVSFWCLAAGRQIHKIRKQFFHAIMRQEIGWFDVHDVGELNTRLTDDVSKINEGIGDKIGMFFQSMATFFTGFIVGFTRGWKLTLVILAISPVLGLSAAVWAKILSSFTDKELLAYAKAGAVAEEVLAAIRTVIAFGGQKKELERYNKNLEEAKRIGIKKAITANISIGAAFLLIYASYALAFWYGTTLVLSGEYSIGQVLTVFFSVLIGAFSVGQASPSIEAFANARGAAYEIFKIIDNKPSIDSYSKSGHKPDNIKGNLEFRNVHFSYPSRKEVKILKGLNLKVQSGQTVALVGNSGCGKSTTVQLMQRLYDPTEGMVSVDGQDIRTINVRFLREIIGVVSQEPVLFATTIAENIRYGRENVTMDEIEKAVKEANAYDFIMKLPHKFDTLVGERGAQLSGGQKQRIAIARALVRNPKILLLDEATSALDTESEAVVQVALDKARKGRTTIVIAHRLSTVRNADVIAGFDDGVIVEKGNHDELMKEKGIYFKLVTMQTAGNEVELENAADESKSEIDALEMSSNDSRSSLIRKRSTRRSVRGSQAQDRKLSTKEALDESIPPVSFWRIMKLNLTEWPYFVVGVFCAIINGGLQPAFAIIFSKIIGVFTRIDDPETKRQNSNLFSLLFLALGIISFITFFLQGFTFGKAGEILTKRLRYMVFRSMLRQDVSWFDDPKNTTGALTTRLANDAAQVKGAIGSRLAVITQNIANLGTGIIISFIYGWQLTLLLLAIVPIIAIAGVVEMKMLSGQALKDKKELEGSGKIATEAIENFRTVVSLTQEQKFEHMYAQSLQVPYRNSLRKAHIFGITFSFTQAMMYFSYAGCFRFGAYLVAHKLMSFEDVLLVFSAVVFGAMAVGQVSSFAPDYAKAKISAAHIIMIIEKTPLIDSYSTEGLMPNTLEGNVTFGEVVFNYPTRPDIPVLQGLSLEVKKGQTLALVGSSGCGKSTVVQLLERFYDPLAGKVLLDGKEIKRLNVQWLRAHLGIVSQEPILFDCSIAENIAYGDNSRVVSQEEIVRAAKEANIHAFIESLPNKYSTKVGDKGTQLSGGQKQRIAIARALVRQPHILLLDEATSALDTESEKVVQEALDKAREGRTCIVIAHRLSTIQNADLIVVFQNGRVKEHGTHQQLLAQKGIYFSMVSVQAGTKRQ

| IC50 (A375 cells; A-375, 72 h) [nM] | Papp A→B at 90 min, 10 µM (P-gp) [×10⁻⁶ cm/s] | Papp B→A at 90 min, 10 µM (P-gp) [×10⁻⁶ cm/s] | IC50 (HCT116 cells; [3]) [nM] | IC50 (SK-MEL-28 cells) [nM] | Structure (SMILES) | further results |
| --- | --- | --- | --- | --- | --- | --- |
| > 50000 | 0.518 | 0.398 ± 0.149 |  |  | CC(C)(C)c1nc(-c2c(F)ccc(NS(=O)(=O)c3cc(C(F)(F)F)ccc3C(F)(F)F)c2F)c(-c2ccnc(NCCCCC(=O)O)n2)s1 [6-150, 5-((4-(4-(3-((2,5-bis(trifluoromethyl)phenyl)sulfonamido)-2,6-difluorophenyl)-2-(tert-butyl)thiazol-5-yl)pyrimidin-2-yl)amino)pentanoic acid] | efflux ratio at 90 min, 10 µM (P-gp): 0.6 |
| > 50000 |  | 0.46 ± 0.086 |  |  | CC(C)(C)c1nc(-c2cccc(NS(=O)(=O)c3cc(C(F)(F)F)ccc3C(F)(F)F)c2F)c(-c2ccnc(NCCCCC(=O)O)n2)s1 [6-173, 5-((4-(4-(3-((2,5-bis(trifluoromethyl)phenyl)sulfonamido)-2-fluorophenyl)-2-(tert-butyl)thiazol-5-yl)pyrimidin-2-yl)amino)pentanoic acid] |  |
| 14700 ± 6160 |  | 1.79 ± 0.064 |  |  | CC(C)(C)c1nc(-c2c(F)ccc(NS(=O)(=O)c3ccc(F)cc3C(F)(F)F)c2F)c(-c2ccnc(NCCCCC(=O)O)n2)s1 [6-179, 5-((4-(2-(tert-butyl)-4-(2,6-difluoro-3-((4-fluoro-2-(trifluoromethyl)phenyl)sulfonamido)phenyl)thiazol-5-yl)pyrimidin-2-yl)amino)pentanoic acid] |  |
| 558 ± 118 |  | 1.45 ± 0.172 |  |  | CC(C)(C)c1nc(-c2cccc(NS(=O)(=O)c3c(F)cccc3F)c2F)c(-c2ccnc(CCCC(=O)O)n2)s1 [6-191, 4-(4-(2-(tert-butyl)-4-(3-((2,6-difluorophenyl)sulfonamido)-2-fluorophenyl)thiazol-5-yl)pyrimidin-2-yl)butanoic acid] | Emax (A375 cells; A-375, A375, 72-hour incubation): 60% |
| 113 ± 10.7 |  |  | 8840 | 124 ± 4.86 | CCCS(=O)(=O)Nc1cc(Cl)cc(-c2nc(C(C)(C)C)sc2-c2ccnc(NCC(C)CC(=O)O)n2)c1F (stereo not shown) [6-265, 4-((4-(2-(tert-butyl)-4-(5-chloro-2-fluoro-3-(propylsulfonamido)phenyl)thiazol-5-yl)pyrimidin-2-yl)amino)-3-methylbutanoic acid] |  |
| 301 ± 39.9 |  |  | > 1000 | 246 ± 8.73 | CCCS(=O)(=O)Nc1cc(Cl)cc(-c2nc(C(C)(C)C)sc2-c2ccnc(NCC(C)C(F)C(=O)O)n2)c1F (stereo not shown) [8-41, 4-((4-(2-(tert-butyl)-4-(5-chloro-2-fluoro-3-(propylsulfonamido)phenyl)thiazol-5-yl)pyrimidin-2-yl)amino)-2-fluoro-3-methylbutanoic acid] |  |
| 38.2 ± 3.29 |  |  | 5130 ± 382 | 51.1 ± 1.35 | CCCS(=O)(=O)Nc1cc(Cl)cc(-c2nc(C(C)(C)C)sc2-c2ccnc(NCC[C@@H](C)CC(=O)O)n2)c1F [8-43, (R)-5-((4-(2-(tert-butyl)-4-(5-chloro-2-fluoro-3-(propylsulfonamido)phenyl)thiazol-5-yl)pyrimidin-2-yl)amino)-3-methylpentanoic acid] |  |
| 5.17 ± 0.412 | 1.32 ± 0.602 | 14.7 ± 1.8 |  |  | COC(=O)N[C@@H](C)CNc1nccc(-c2cn(C(C)C)nc2-c2cc(Cl)cc(NS(C)(=O)=O)c2F)n1 [Encorafenib, reference compound] | ER (efflux ratio) (P-gp; MDR1-MDCK): 21.8; Kp at 60 min [1]: 0.0014 to 0.0069 |
|  |  |  |  |  | CCCS(=O)(=O)Nc1ccc(F)c(C(=O)c2c[nH]c3ncc(Cl)cc23)c1F [PLX4720, reference compound] | Kp at 60 min [1]: 0.0014 to 0.0069; inhibition of ERK1/2 phosphorylation after 24 h [2]: diminished inhibition |

| Structure (SMILES) | IC50 (A375 cells; A-375, 72 h) [nM] | Papp A→B at 90 min, 10 µM (P-gp) [×10⁻⁶ cm/s] | Papp B→A at 90 min, 10 µM (P-gp) [×10⁻⁶ cm/s] | IC50 (HCT116 cells; [3]) [nM] | IC50 (SK-MEL-28 cells) [nM] | further results |
| --- | --- | --- | --- | --- | --- | --- |
| CCCS(=O)(=O)Nc1ccc(F)c(C(=O)c2c[nH]c3ncc(-c4ccc(Cl)cc4)cc23)c1F [Vemurafenib, reference compound] |  | 0.667 ± 0.11 | 3.81 ± 0.063 | 27000 |  | IC50 (B16F10 cells): > 10000 nM; IC50 (A375 cells; A-375): 331 ± 93 nM; efflux ratio at 90 min, 10 µM (P-gp): 5.92 ± 0.77; IC50 (AM-38 cells): 344 ± 59.3 nM; IC50 (CHL-1 cells; melanoma, read-out: CHL-1 (WT) IC50): > 10000 nM; IC50 (CHL-1 cells; read-out: CHL-1 IC50): > 10000 nM; IC50 (T98G cells): > 10000 nM; IC50 (U118MG cells; glioma, read-out: U118MG (WT) IC50): > 10000 nM; IC50 (U118MG cells; read-out: U118MG IC50): > 10000 nM; IC50 (HCT116 cells; read-out: HCT116 IC50): > 10000 nM; IC50 (U87 cells; U-87 MG, read-out: U87 IC50): > 10000 nM; IC50 (U87 cells; glioma, read-out: U87 (WT) IC50): > 10000 nM; IC50 (HT29 cells): 240 ± 61.7 nM |
